Measured values as given in PubChem BioAssay (NCI).
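48-hour exposure; five concentrations; linearly interpolated endpoints. Abbreviation: GI50, concentration required for 50% inhibition of growth. TGI marks complete inhibition of growth.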

Legend:
Assay in all cases: inhibition of tumour cell growth, NCI panel, 48 h
[1] = test system: 786-0 renal
[2] = test system: A498 renal
[3] = test system: A549 NSCLC
[4] = test system: ACHN renal
[5] = test system: BT-549 breast
[6] = test system: CAKI-1 renal
[7] = test system: CCRF-CEM leukemia
[8] = test system: COLO 205 colon
[9] = test system: DU-145 prostate
[10] = test system: EKVX NSCLC
[11] = test system: HCC-2998 colon
[12] = test system: HCT-116 colon
[13] = test system: HCT-15 colon
[14] = test system: HL-60(TB) leukemia
[15] = test system: HOP-62 NSCLC
[16] = test system: HOP-92 NSCLC
[17] = test system: HS 578T breast
[18] = test system: HT29 colon
[19] = test system: IGROV1 ovarian
[20] = test system: K-562 leukemia
[21] = test system: KM12 colon
[22] = test system: LOX IMVI melanoma
[23] = test system: M14 melanoma
[24] = test system: MCF7 breast
[25] = test system: MDA-MB-231 breast
[26] = test system: MDA-MB-435
[27] = test system: MOLT-4 leukemia
[28] = test system: NCI-H226 lung
[29] = test system: NCI-H23 lung
[30] = test system: NCI-H460 lung
[31] = test system: NCI-H522 lung
[32] = test system: NCI/ADR-RES ovarian
[33] = test system: OVCAR-3 ovarian
[34] = test system: OVCAR-4 ovarian
[35] = test system: OVCAR-5 ovarian
[36] = test system: OVCAR-8 ovarian
[37] = test system: PC-3 prostate
[38] = test system: RPMI-8226 leukemia
[39] = test system: RXF 393 renal
[40] = test system: SF-268 CNS
[41] = test system: SF-295 CNS
[42] = test system: SF-539 CNS
[43] = test system: SK-MEL-2 melanoma
[44] = test system: SK-MEL-28 melanoma
[45] = test system: SK-MEL-5 melanoma
[46] = test system: SK-OV-3 ovarian
[47] = test system: SN12C renal
[48] = test system: SNB-19 CNS
[49] = test system: SNB-75 CNS
[50] = test system: SR leukemia
[51] = test system: SW-620 colon
[52] = test system: T-47D breast
[53] = test system: TK-10 renal
[54] = test system: U251 CNS
[55] = test system: UACC-257 melanoma
[56] = test system: UACC-62 melanoma
[57] = test system: UO-31 renal

Structure (SMILES): Cc1ccc(-c2c3c(nn2-c2ccc(S(=O)(=O)NC(=O)Nc4ccccc4)cc2)-c2ccccc2C3)cc1
- GI50 [1]: 22.7 µM
- TGI [1]: > 100 µM
- GI50 [2]: 19.6 µM
- TGI [2]: 36.6 µM
- GI50 [3]: 28 µM
- TGI [3]: > 100 µM
- GI50 [4]: 14.6 µM
- TGI [4]: 30.5 µM
- GI50 [5]: 18.8 µM
- TGI [5]: 44.2 µM
- GI50 [6]: 15.4 µM
- TGI [6]: 45.5 µM
- GI50 [7]: 2.13 µM
- TGI [7]: > 100 µM
- GI50 [8]: 19.5 µM
- TGI [8]: 45.9 µM
- GI50 [9]: 15.3 µM
- TGI [9]: 33.9 µM
- GI50 [10]: 18.1 µM
- TGI [10]: 43.8 µM
- GI50 [11]: 13.6 µM
- TGI [11]: 37.9 µM
- GI50 [12]: 19.2 µM
- TGI [12]: > 100 µM
- GI50 [13]: 15.5 µM
- TGI [13]: 52.2 µM
- GI50 [14]: 24.2 µM
- TGI [14]: 83.7 µM
- GI50 [15]: 32 µM
- TGI [15]: > 100 µM
- GI50 [16]: 18.1 µM
- TGI [16]: 44.9 µM
- GI50 [17]: 24.1 µM
- TGI [17]: 73.9 µM
- GI50 [18]: 35.7 µM
- TGI [18]: > 100 µM
- GI50 [19]: 3.67 µM
- TGI [19]: 16.5 µM
- GI50 [20]: 11.1 µM
- TGI [20]: > 100 µM
- GI50 [21]: 18 µM
- TGI [21]: 51.2 µM
- GI50 [22]: 12.3 µM
- TGI [22]: > 100 µM
- GI50 [23]: 24.6 µM
- TGI [23]: 87.2 µM
- GI50 [24]: 20.5 µM
- TGI [24]: > 100 µM
- GI50 [25]: 17.5 µM
- TGI [25]: 55 µM
- GI50 [26]: 28.1 µM
- TGI [26]: > 100 µM
- GI50 [27]: 5.14 µM
- TGI [27]: > 100 µM
- GI50 [28]: 15.4 µM
- TGI [28]: 56 µM
- GI50 [29]: 15 µM
- TGI [29]: 37.6 µM
- GI50 [30]: 19.3 µM
- TGI [30]: 70.2 µM
- GI50 [31]: 11.7 µM
- TGI [31]: 30.5 µM
- GI50 [32]: 23.1 µM
- TGI [32]: 75.5 µM
- GI50 [33]: 32.9 µM
- TGI [33]: > 100 µM
- GI50 [34]: 19.7 µM
- TGI [34]: 51.5 µM
- GI50 [35]: 30.1 µM
- TGI [35]: 97.2 µM
- GI50 [36]: 19.1 µM
- TGI [36]: 52.9 µM
- GI50 [37]: 16 µM
- TGI [37]: 38 µM
- GI50 [38]: 7.22 µM
- TGI [38]: 69.3 µM
- GI50 [39]: 17.9 µM
- TGI [39]: 43.1 µM
- GI50 [40]: 19.1 µM
- TGI [40]: 55.7 µM
- GI50 [41]: 34.5 µM
- TGI [41]: > 100 µM
- GI50 [42]: 18.2 µM
- TGI [42]: 38.9 µM
- GI50 [43]: 16.1 µM
- TGI [43]: 32.5 µM
- GI50 [44]: 21.2 µM
- TGI [44]: 46.9 µM
- GI50 [45]: 15.1 µM
- TGI [45]: 36.5 µM
- GI50 [46]: 18.2 µM
- TGI [46]: 48.1 µM
- GI50 [47]: 16.9 µM
- TGI [47]: 35.8 µM
- GI50 [48]: 30 µM
- TGI [48]: > 100 µM
- GI50 [49]: 22.9 µM
- TGI [49]: 66.3 µM
- GI50 [50]: 2.26 µM
- TGI [50]: 6.92 µM
- GI50 [51]: 12 µM
- TGI [51]: > 100 µM
- GI50 [52]: 30.7 µM
- TGI [52]: > 100 µM
- GI50 [53]: 10.3 µM
- TGI [53]: 24.8 µM
- GI50 [54]: 17.5 µM
- TGI [54]: 37.6 µM
- GI50 [55]: 18.7 µM
- TGI [55]: 39.9 µM
- GI50 [56]: 12.8 µM
- TGI [56]: 27.4 µM
- GI50 [57]: 8.78 µM
- TGI [57]: 24.3 µM
